Source: US20240425513A1, “OXAZOLE, OXADIAZOLE, AND INDOLE DERIVATIVES FOR THE INHIBITION OF USP28” (Carmot Therapeutics, Inc., priority 2021, published 2024)

Target: His6 USP28 (Homo sapiens (Human), UniProt Q96RU2)
Assay: Ubiquitin-Rhodamine 110 assay to determine USP28 IC50
Format: biochemical
Settings: USP28 150 pM, Ub-Rho110 41 nM, 2 h pre-incubation with enzyme, fluorescence read
Protocol: Example 21. Ubiquitin-Rhodamine 110 Assay to Determine USP28 IC50
Each assay was performed in a final volume of 8 μl in assay buffer containing 10 mM HEPES pH 7.3 ((1 M, pH 7.3 solution, (VWR J848), 100 mM NaCl (5 M, Corning 46-032-CV), 0.01% Triton X-100 (Sigma #T8787), 3.5 mM DTT (1 M, Sigma #43819) and 0.00375% BSA (10%, Calbiochem, #126609)). The assay buffer pH was adjusted to 7.5 using 1 N NaOH (JT Baker, #5000-03). Stock compounds were stored at −80° C. as a 25 mM in DMSO solution along with their respective 20 point 2 fold serial dilutions. For the dose responses, stock compound plates were allowed to come to room temperature the day of the assay. […] of the serial dilution series were pre stamped into assay plates (Black, high base, medium binding, Greiner #782076) for a final top screening concentration of 125 μM (DMSO final concentration=0.5%). Enzyme (His6 USP28, BostonBiochem, #E-570) concentration and incubation times were optimized for the maximal signal to background while maintaining the initial velocity conditions at a fixed substrate concentration. The final concentration of the enzyme in the assay was 150 pM. Final substrate (Ub-Rhol10, Ubiquitin-Rhodamine 110, UBPBio, #M3020) concentration was 41 nM. 2 μl of 4× enzyme was added to assay plates (pre stamped with compound) and incubated for 2 h at room temperature. […] was subsequently added to the assay plates and incubated for 2 h at room temperature. Fluorescence was then read on the Envision (Excitation 485 nm and Emission at 535 nm, Perkin Elmer).

His6 USP28, sequence (Q96RU2 whole entry): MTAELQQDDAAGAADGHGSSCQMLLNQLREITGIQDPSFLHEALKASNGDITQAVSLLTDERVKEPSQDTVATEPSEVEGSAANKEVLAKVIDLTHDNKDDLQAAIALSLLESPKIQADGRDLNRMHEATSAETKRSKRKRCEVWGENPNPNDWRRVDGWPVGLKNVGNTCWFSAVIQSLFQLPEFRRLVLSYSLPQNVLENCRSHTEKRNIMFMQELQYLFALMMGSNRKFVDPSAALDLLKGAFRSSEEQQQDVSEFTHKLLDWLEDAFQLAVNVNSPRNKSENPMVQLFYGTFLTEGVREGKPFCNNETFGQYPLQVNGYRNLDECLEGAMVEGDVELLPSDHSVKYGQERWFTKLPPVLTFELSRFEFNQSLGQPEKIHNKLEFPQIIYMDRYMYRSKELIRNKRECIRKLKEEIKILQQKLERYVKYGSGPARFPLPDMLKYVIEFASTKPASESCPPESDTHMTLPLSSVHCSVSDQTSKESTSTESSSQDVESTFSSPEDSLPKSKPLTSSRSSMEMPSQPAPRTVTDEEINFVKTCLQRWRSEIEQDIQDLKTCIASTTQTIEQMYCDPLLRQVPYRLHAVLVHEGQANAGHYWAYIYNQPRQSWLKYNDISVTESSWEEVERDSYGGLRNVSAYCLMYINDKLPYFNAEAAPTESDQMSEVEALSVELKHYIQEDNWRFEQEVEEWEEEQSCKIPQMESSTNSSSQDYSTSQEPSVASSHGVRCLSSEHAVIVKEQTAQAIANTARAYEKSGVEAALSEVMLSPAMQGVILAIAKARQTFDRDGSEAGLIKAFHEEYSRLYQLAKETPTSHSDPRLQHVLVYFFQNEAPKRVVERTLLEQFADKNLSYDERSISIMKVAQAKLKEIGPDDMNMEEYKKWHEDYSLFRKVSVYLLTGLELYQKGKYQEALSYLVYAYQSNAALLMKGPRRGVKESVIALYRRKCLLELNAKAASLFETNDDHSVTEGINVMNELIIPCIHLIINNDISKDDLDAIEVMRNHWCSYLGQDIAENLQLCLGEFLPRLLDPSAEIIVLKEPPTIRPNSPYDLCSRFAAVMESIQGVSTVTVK

Row | IC50 | SMILES
1 | < 50 nM | CN[C@H]1CCCN(C(=O)c2ccc(COc3ccc(-c4nc(Cc5cccc(Cl)c5)oc4C)cc3)nc2)C1 [Compound 40, (3S)-1-{6-[(4-{2-[(3-Chlorophenyl)methyl]-5-methyl-1,3-oxazol-4-yl}phenoxy)methyl]pyridine-3-carbonyl}-N-methylpiperidin-3-amine]
2 | > 1000 nM | C[C@@H]1C[C@@H](NC(=O)COc2ccc(-c3nc(Cc4cccc(Cl)c4)no3)nc2)CN1C#N [Compound 12, 2-[(6-{3-[(3-Chlorophenyl)methyl]-1,2,4-oxadiazol-5-yl}pyridin-3-yl)oxy]-N-[(3R,5R)-1-cyano-5-methylpyrrolidin-3-yl]acetamide]
3 | 500 to 1000 nM | C[C@@H]1C[C@@H](NC(=O)COc2ccc(-c3nc(Cc4cccc(C#N)c4)no3)cc2)CN1C#N [Compound 8, N-((3R,5R)-1-Cyano-5-methylpyrrolidin-3-yl)-2-(4-(3-(3-cyanobenzyl)-1,2,4-oxadiazol-5-yl)phenoxy)acetamide]
4 | 500 to 1000 nM | C/C(=C\c1ccc(-c2nc(Cc3cccc(Cl)c3)no2)cc1)C(=O)N[C@@H]1C[C@@H](C)N(C#N)C1 [Compound 13, (E)-3-(4-(3-(3-chlorobenzyl)-1,2,4-oxadiazol-5-yl)phenyl)-N-((3R,5R)-1-cyano-5-methylpyrrolidin-3-yl)-2-methylacrylamide]
5 | < 50 nM | Cc1oc(Cc2cccc(Cl)c2)nc1-c1ccc(OCc2ccc(C(=O)N(C)C)cc2COCCO)cc1 [Compound 33, 4-((4-(2-(3-Chlorobenzyl)-5-methyloxazol-4-yl)phenoxy)methyl)-3-((2-hydroxyethoxy)methyl)-N,N-dimethylbenzamide]
6 | < 50 nM | CN[C@H]1CCN(C(=O)c2ccc(COc3ccc(-c4nc(Cc5cccc(Cl)c5)oc4C)cc3)nc2)C1 [Compound 35, (3S)-1-{6-[(4-{2-[(3-Chlorophenyl)methyl]-5-methyl-1,3-oxazol-4-yl}phenoxy)methyl]pyridine-3-carbonyl}-N-methylpyrrolidin-3-amine]
7 | 50 to 500 nM | CN(C)C(=O)c1ccc(OCc2ccc(-c3nc(Cc4cccc(Cl)c4)no3)cc2)cc1 [Compound 18, 4-((4-(3-(3-Chlorobenzyl)-1,2,4-oxadiazol-5-yl)benzyl)oxy)-N,N-dimethylbenzamide]
8 | < 50 nM | Cc1oc(Cc2cccc(Cl)c2)nc1-c1ccc(OCc2cnc(C(=O)N(C)C)cn2)cc1 [Compound 28, 5-[(4-{2-[(3-Chlorophenyl)methyl]-5-methyl-1,3-oxazol-4-yl}phenoxy)methyl]-N,N-dimethylpyrazine-2-carboxamide]
9 | > 1000 nM | N#CN1C[C@H](NC(=O)COc2ccc(-c3nc(Cc4ccccc4)no3)cc2)C[C@H]1CF [Compound 1, 2-[4-(3-Benzyl-1,2,4-oxadiazol-5-yl)phenoxy]-N-[(3R,5S)-1-cyano-5-(fluoromethyl)pyrrolidin-3-yl]acetamide]
10 | 50 to 500 nM | C[C@@H]1C[C@@H](NC(=O)COc2ccc(-c3nc(Cc4cccc(C(F)(F)F)c4)no3)cc2)CN1C#N [Compound 6, N-[(3R,5R)-1-Cyano-5-methylpyrrolidin-3-y1]-2-[4-(3-{[3-(trifluoromethyl)phenyl]methyl}-1,2,4-oxadiazol-5-y1)phenoxy]acetamide]
11 | 50 to 500 nM | Cc1oc(Cc2cccc(Cl)c2)nc1-c1ccc(/C=C/C(=O)N[C@H]2CN[C@H](C)C2)cc1 [Compound 15, (E)-3-(4-(2-(3-Chlorobenzyl)-5-methyloxazol-4-yl)phenyl)-N-((3R,5R)-5-methylpyrrolidin-3-yl)acrylamide]
12 | 500 to 1000 nM | Cc1ccc(C(=O)NCc2ccc(-c3nc(Cc4cccc(Cl)c4)no3)cc2)cn1 [Compound 19, N-[(4-{3-[(3-Chlorophenyl)methyl]-1,2,4-oxadiazol-5-yl}phenyl)methyl]-6-methylpyridine-3-carboxamide]
13 | < 50 nM | Cc1oc(Cc2cccc(Cl)c2)nc1-c1ccc(OCc2ccc(C(=O)N(C)C)nn2)cc1 [Compound 25, 6-[(4-{2-[(3-Chlorophenyl)methyl]-5-methyl-1,3-oxazol-4-yl}phenoxy)methyl]-N,N-dimethylpyridazine-3-carboxamide]

Row | SMILES | IC50
14 | Cc1oc(Cc2cccc(Cl)c2)nc1-c1ccc(OCc2ccc(C(=O)N3CC4CCC(C3)N4)cn2)cc1 [Compound 29, (3,8-Diazabicyclo[3.2.1]octan-3-yl)(6-((4-(2-(3-chlorobenzyl)-5-methyloxazol-4-yl)phenoxy)methyl)pyridin-3-yl)methanone] | < 50 nM
